Assay results reported in patent US20220073496A1, “NOVEL QUINOLINE DERIVATIVE INHIBITOR” (Nanjing Transthera Biosciences Co., Ltd., priority 2018, published 2022).
Read-outs that look alike come from different tables or passages of the source.

What was measured:
[1] = Stability in liver microsome of dogs; type: in vitro ADME; settings: Dog liver microsome 0.5 mg protein/mL, compound 1 μM, 37° C.; for half-life at 1 μM / microsomal CLint at 1 μM: liver microsomes
Protocol: Assay 1: Stability assessment of the compounds of the present invention in liver microsome of mice and dogs
Test substances: the compounds of the present invention, wherein the structures and preparations thereof were as described above.
The composition of the incubation system:
Preparation of Test Substances:
An appropriate amount of the compound was accurately weighed and dissolved in DMSO to prepare a 5.0 mM stock solution. The 5.0 mM stock solution was diluted to 1.0 mM with DMSO, and finally diluted with water to a 10 μM test substance working solution for use (the DMSO content in the reaction system was 0.1%).
(1) The liver microsome (20 mg protein/mL) was taken out from the −80° C. refrigerator, pre-incubated at 37° C. with a water-bathing constant temperature vibrator for 3 minutes, and melted for use.
(2) A mixed solution of the incubation system (excluding compounds and β-NADPH) according to the above “composition of the incubation system” for the assay was prepared, and pre-incubated at 37° C. with a water-bathing constant temperature vibrator for 2 minutes.
(3) Control group (excluding β-NADPH): 30 μL of water and 30 μL of compound working solution (10 μM) were added to 240 μL of the mixed solution of the incubation system of step (2), and vortexed for 30 seconds to mix well. The total reaction volume was 300 μL. A duplicate sample was prepared. The sample was incubated at 37° C. with a water-bathing constant temperature vibrator. The timekeeping began and the sampling time points were set at 0 minute and 60 minutes.
(4) Sample group: 70 μL of β-NADPH solution (10 mM) and 70 μL of compound working solution (10 μM) were added to 560 μL of the mixed solution of step (2). The total reaction volume was 700 μL. The resulting mixture was vortexed for 30 seconds to mix well. A duplicate sample was prepared. The sample was incubated at 37° C. with a water-bathing constant temperature vibrator. The timekeeping began and the sampling time points were set at 0 minute, 5 minutes, 10 minutes, 20 minutes, 30 minutes, and 60 minutes after timekeeping.
(5) After vortexing for 3 minutes, the sample was centrifuged at 4000 rpm for 10 minutes.
(6) 50 μL of the supernatant was taken and 150 μL of water was added. The resulting mixture was vortexed to mix well, and analyzed by LC/MS/MS.
The half-life (t1/2) and clearance rate (Cl) were calculated using the following first-order kinetic formula:
Vd=1/protein content in liver microsome
Note: k was the slope of the logarithm of the remaining amount of the compound versus time, and Vd was the apparent distribution volume.

Rat PK evaluation = type: in vivo; settings: SD rats; for Vz_obs iv (apparent distribution volume) / bioavailability / AUC(0-t) / clearance / half-life: n = 3; for bioavailability / AUC(0-t) / clearance / half-life / Tmax: rat, plasma; for bioavailability: read-out: F % (absolute bioavailability); for clearance: read-out: Cl_obs iv (clearance rate) (converted); for Tmax: n = 3, median, read-out: Tmax po (time to peak plasma concentration)
Protocol: Assay 2: Rat PK Evaluation for the Compounds of the Present Invention
Animal Administration and Sample Collection:
(§1) The test compounds 14, 15, 16, 20, 29, 30, 31, 32, 33, 34, 36, 37, 47 and 48 were dissolved in 5% DMSO+20% (30% solutol)+75% saline to prepare the compound solutions. Each of the compound solutions was intragastrically administered to SD rats at a dose of 5.0 mg/kg. The time points of blood collection were: 15 minutes, 30 minutes, 1 hour, 2 hours, 4 hours, 6 hours, 8 hours, 24 hours, 30 hours, and 48 hours.
The test compounds 38, 39, 40 and 41 were dissolved in 5% NMP+5% Tween-80+90% saline to prepare the compound solutions. Each of the compound solutions was intragastrically administered to SD rats at a dose of 5.0 mg/kg. The time points of blood collection were: 15 minutes, 30 minutes, 1 hour, 2 hours. 4 hours, 6 hours, 8 hours, 24 hours, 30 hours, and 48 hours.
as §1, with “was” for “was intragastrically”, “administered by intravenous bolus injection” for “administered”, “1” for “5.0”, “were: 5 minutes,” for “were:”, “hours,” for “hours, 30 hours,”
The test compounds 38, 39, 40 and 41 were dissolved in 5% NMP+5% Tween-80+90% saline to prepare the compound solutions. Each of the compound solutions was administered by intravenous bolus injection to SD rats at a dose of 1 mg/kg. The time points of blood collection were: 5 minutes, 15 minutes, 30 minutes, 1 hour, 2 hours, 4 hours, 6 hours, 8 hours, 24 hours, and 48 hours.
The animal was fixed. The tail was heated in a water bath pot 10 minutes before each time point. About 100 μL of blood was collected through the tail vein. The blood was collected and placed in an anti-coagulation tube containing EDTA-K2. The blood sample was centrifuged at 8000 rpm for 6 minutes at 4° C. to obtain a plasma sample. The plasma was prepared within 30 minutes after the blood collection. The plasma was stored in a −80° C. refrigerator before testing.
The sample to be tested was taken out from the −80° C. refrigerator, naturally melted at room temperature and vortexed for 5 minutes. 20 μL of plasma sample was accurately pipetted into a 1.5 mL centrifuge tube. 200 μL of an internal standard working solution (a solution of tolbutamide in methanol) having a concentration of 100 ng/mL was added and mixed well. The mixture was vortexed for 5 minutes, and centrifuged at 12000 rpm for 5 minutes. 50 μL of the supernatant was accurately pipetted into a 96-well plate pre-filled with 150 μL/well of water. The plate was vortexed for 5 minutes and mixed well, and then the LC-MS/MS determination and analysis were performed.
The concentration of the test substance was output using Analyst 1.6.3 from AB Company. Parameters such as mean, standard deviation, and coefficient of variation were calculated with Microsoft Excel (direct outputs from Analyst 1.6.3 were not calculated), and the PK parameters were calculated using Pharsight Phoenix 6.1 software NCA (Tmax was the median).

[2] = IV 1 mg/kg, read-out: AUClast iv (area under the drug-time curve from 0 to 48 hours)
[3] = IV 1 mg/kg, read-out: tz1/2 iv (terminal elimination half-life) (converted)
[4] = PO 5 mg/kg, read-out: AUClast po (area under the drug-time curve from 0 to 48 hours)
[5] = PO 5 mg/kg, read-out: tz1/2 po (terminal elimination half-life) (converted)

Compound	half-life at 1 μM [1]	microsomal CLint at 1 μM [1]	Vz_obs iv (apparent distribution volume) (Rat PK evaluation; IV 1 mg/kg)	bioavailability (Rat PK evaluation; IV 1 mg/kg, PO 5 mg/kg)	AUC(0-t) (Rat PK evaluation; [2])	clearance (Rat PK evaluation; IV 1 mg/kg)	half-life (Rat PK evaluation; [3])	Tmax (Rat PK evaluation; PO 5 mg/kg)	AUC(0-t) (Rat PK evaluation; [4])	half-life (Rat PK evaluation; [5])	t1/2 [1]
COc1cc2nccc(Oc3ncc(NC(=O)c4nn(C(C)C)cc(-c5ccc(F)cc5)c4=O)cn3)c2cc1OC [Compound 34, N-(2-((6,7-dimethoxyquinolin-4-yl)oxy)pyrimidine-5-yl)-5-para-fluorophenyl-1-isopropyl-4-oxo-1,4-dihydropyridazine-3-carboxamide]	8.25 h	2.8 µL/min/mg	0.15 L/kg	80.4%	81000 ng·h/mL	0.217 mL/min/kg	7.46 h	4 h	321000 ng·h/mL	8.31 h	
COc1cc2nccc(Oc3ccc(NC(=O)c4nn(C(C)C)cc(-c5ccc(F)cc5)c4=O)cn3)c2cc1OC [Compound 29, N-(6-((6,7-dimethoxyquinolin-4-yl)oxy)pyridin-3-yl)-1-isopropyl-4-oxo-5-para-fluorophenyl-1,4-dihydropyridazine-3-carboxamide]	2.18 h	10.6 µL/min/mg	0.42 L/kg	59.1%	78600 ng·h/mL	0.6 mL/min/kg	13.7 h	4 h	246000 ng·h/mL	12.2 h	
COc1cc2nccc(Oc3ccc(NC(=O)c4cn(C5CC5)cc(-c5ccc(F)cc5)c4=O)nc3)c2cc1OC [Compound 30, N-(5-((6,7-dimethoxyquinolin-4-yl)oxy)pyridin-2-yl)-1-cyclopropyl-4-oxo-5-para-fluorophenyl-1,4-hydropyridin-3-carboxamide]	0.938 h	24.6 µL/min/mg	0.30 L/kg	78.7%	41400 ng·h/mL	0.4 mL/min/kg	8.68 h	6 h	152000 ng·h/mL	13.4 h	
COc1cc2nccc(Oc3ccc(NC(=O)c4cn(C(C)C)cc(-c5ccc(F)cc5)c4=O)nc3)c2cc1OC [Compound 14, N-(5-((6,7-dimethoxyquinolin-4-yl)oxy)pyridin-2-yl)-5-(4-fluorophenyl)-1-isopropyl-4-oxo-1,4-dihydropyridin-3-carboxamide]	2.57 h	9 µL/min/mg	0.25 L/kg	63.2%	34900 ng·h/mL	0.45 mL/min/kg	6.3 h	2 h	110000 ng·h/mL	12.1 h	
COc1cc2nccc(Oc3ccc(NC(=O)c4nn(C5CC5)cc(-c5ccc(F)cc5)c4=O)cn3)c2cc1OC [Compound 36]	1.93 h	12 µL/min/mg	0.095 L/kg	57.5%	167000 ng·h/mL	0.0967 mL/min/kg	11.6 h	4 h	463000 ng·h/mL	12.7 h	
COc1cc2nccc(Oc3cnc(NC(=O)c4nn(C(C)C)cc(-c5ccc(F)cc5)c4=O)nc3)c2cc1OC [Compound 16, N-(5-((6,7-dimethoxyquinolin-4-yl)oxy)pyrimidine-2-yl)-5-(4-fluorophenyl)-1-isopropyl-4-oxo-1,4-dihydropyridazine-3-carboxamide]	8.25 h	2.8 µL/min/mg	0.12 L/kg	35.6%	48600 ng·h/mL	0.35 mL/min/kg	4.13 h	1 h	86400 ng·h/mL	5.67 h	
COc1cc2nccc(Oc3ncc(NC(=O)c4nn(C5CC5)cc(-c5ccc(F)cc5)c4=O)cn3)c2cc1OC [Compound 37, 1-cyclopropyl-N-(2-((6,7-dimethoxyquinolin-4-yl)oxy)pyrimidine-5-yl)-5-para-fluorophenyl-4-oxo-1,4-dihydropyridazine-3-carboxamide]	2.82 h	8.2 µL/min/mg	0.12 L/kg	78.7%	69700 ng·h/mL	0.233 mL/min/kg	5.98 h	4 h	273000 ng·h/mL	7.73 h	
COc1cc2nccc(Oc3cnc(NC(=O)c4cn(C5CC5)cc(-c5ccc(F)cc5)c4=O)nc3)c2cc1OC [Compound 32, 1-cyclopropyl-N-(5-((6,7-dimethoxyquinolin-4-yl)oxy)pyrimidine-2-yl)-5-(4-fluorophenyl)-4-oxo-1,4-dihydropyridin-3-carboxamide]	3.5 h	6.6 µL/min/mg	0.23 L/kg	75.4%	23900 ng·h/mL	0.75 mL/min/kg	3.74 h	4 h	90500 ng·h/mL	5.04 h	
COc1cc2nccc(Oc3cnc(NC(=O)c4nn(C5CC5)cc(-c5ccc(F)cc5)c4=O)nc3)c2cc1OC [Compound 33]			0.146 L/kg	31.7%	55700 ng·h/mL	0.3 mL/min/kg	5.47 h	2 h	88800 ng·h/mL	4.73 h	→∞
COc1cc2nccc(Oc3ccc(NC(=O)c4nn(C5CC5)cc(-c5ccc(F)cc5)c4=O)nc3)c2cc1OC [Compound 31]			0.14 L/kg	27.7%	224000 ng·h/mL	0.05 mL/min/kg	32.6 h	4 h	310000 ng·h/mL	19.2 h	→∞
